Earlier results as cited in patent US20230310544A1, “ANTI-RNA VIRAL PHARMACEUTICAL COMBINATION THERAPY WITH APROTININ + anti-RNA DRUG” (ASAVI LLC, priority 2022, published 2023).

Columns and labels:
[1] = tested on: COVID-19; conditions: COVID-19 patients
[2] = tested on: SARS-CoV-2; conditions: human, in vivo

NC(=O)c1nc(F)c[nH]c1=O [FVP, favipiravir]
time to clinical improvement [1]: ≤ 14 days | time to viral clearance [1]: ≤ 7 days | Median time to elimination of SARS-CoV-2 confirmed by RT-PCR, days (IQR) [2]: 4.5 days | Median time to improvement in clinical status by 2 points on the WHO-OSCI, days (IQR) [2]: 14.0 days | Median time to normalization of body temperature (<37° C.), days (IQR) [2]: 2.0 days
